# Measured values taken from US20160151370A1, “Substituted Benzylpyrazoles” (BAYER PHARMA AKTIENGESELLSCHAFT, priority 2013, published 2016).
# What was measured:
# [1] = molecular target: T1, catalytic domain of human Bub1 (amino acids 704-1085) (Homo sapiens, UniProt O43683); assay: Bub1 kinase assay (TR-FRET); assay type: biochemical; settings: 10 μM ATP, 1 μM peptide substrate, median value, read-out: Biological Assay 1: Bub1 kinase assay median IC50
# T1 construct: catalytic domain of human Bub1 (amino acids 704-1085); His6 (N); made in house; host or cells: Hi5 insect cells
# Description: Bub1-inhibitory activities of compounds described in the present invention were quantified using a time-resolved fluorescence energy transfer (TR-FRET) kinase assay which measures phosphorylation of the synthetic peptide Biotin-Ahx-[…] (C-terminus in amide form), purchased from e.g. Biosyntan (Berlin, Germany) by the (recombinant) catalytic domain of human Bub1 (amino acids 704-1085), expressed in Hi5 insect cells with an N-terminal His6-tag and purified by affinity-(Ni-NTA) and size exclusion chromatography.
# In a typical assay 11 different concentrations of each compound (0.1 nM, 0.33 nM, 1.1 nM, 3.8 nM, 13 nM, 44 nM, 0.15 μM, 0.51 μM, 1.7 μM, 5.9 μM and 20 μM) were tested in duplicate within the same microtiter plate. To this end, 100-fold concentrated compound solutions (in DMSO) were previously prepared by serial dilution (1:3.4) of 2 mM stocks in a clear low volume 384-well source microtiter plate (Greiner Bio-One, Frickenhausen, Germany), from which 50 nL of compounds were transferred into a black low volume test microtiter plate from the same supplier. Subsequently, 2 μL of Bub1 (the final concentration of Bub1 was adjusted depending on the activity of the enzyme lot in order to be within the linear dynamic range of the assay: typically ˜200 ng/mL were used) in aqueous assay buffer [50 mM Tris/HCl pH 7.5, 10 mM magnesium chloride (MgCl2), 200 mM potassium chloride (KCl), 1.0 mM dithiothreitol (DTT), 0.1 mM sodium ortho-vanadate, 1% (v/v) glycerol, 0.01% (w/v) bovine serum albumine (BSA), 0.005% (v/v) Trition X-100 (Sigma), 1× Complete EDTA-free protease inhibitor mixture (Roche)] were added to the compounds in the test plate and the mixture was incubated for 15 min at 22° C. to allow pre-equilibration of the putative enzyme-inhibitor complexes before the start of the kinase reaction, which was initiated by the addition of 3 μL 1.67-fold concentrated solution (in assay buffer) of adenosine-tri-phosphate (ATP, 10 μM final concentration) and peptide substrate (1 μM final concentration). […] Subsequently, the amount of product was evaluated by measurement of the resonance energy transfer from the Eu-chelate-antibody complex recognizing the Phosphoserine residue to the streptavidin-XL665 bound to the biotin moiety of the peptide. To this end, the fluorescence emissions at 620 nm and 665 nm after excitation at 330-350 nm were measured in a TR-FRET plate reader, e.g. a Rubystar or Pherastar (both from BMG Labtechnologies, Offenburg, Germany) or a Viewlux (Perkin-Elmer) and the ratio of the emissions (665 nm/622 nm) was taken as indicator for the amount of phosphorylated substrate. […] IC50 values were calculated by fitting the normalized inhibition data to a 4-parameter logistic equation (Minimum, Maximum, IC50, Hill; Y=Max+(Min−Max)/(1+(X/IC50)Hill)).
# [2] = tested on: HeLa human cervical cancer cell line; assay: Proliferation assay (crystal violet staining); assay type: cell-based; settings: 96 h, 4 days incubation, median value, read-out: Biological Assay 2: Proliferation assay (HeLa cell line) median IC50
# Description: Cultivated tumor cells (cells were ordered from ATCC) were plated at a density of 3000 cells/well in a 96-well multititer plate in 200 μL of growth medium supplemented 10% fetal calf serum. After 24 hours, the cells of one plate (zero-point plate) were stained with crystal violet (see below), while the medium of the other plates was replaced by fresh culture medium (200 μL), to which the test substances were added in various concentrations (0 μM, as well as in the range of 0.001-10 μM; the final concentration of the solvent dimethyl sulfoxide was 0.5%). The cells were incubated for 4 days in the presence of test substances. Cell proliferation was determined by staining the cells with crystal violet: the cells were fixed by adding 20 μL/measuring point of an 11% glutaric aldehyde solution for 15 minutes at room temperature. After three washing cycles of the fixed cells with water, the plates were dried at room temperature. The cells were stained by adding 100 μL/measuring point of a 0.1% crystal violet solution (pH 3.0). […] Absorbtion was determined by photometry at a wavelength of 595 nm. The change of cell number, in percent, was calculated by normalization of the measured values to the absorbtion values of the zero-point plate (=0%) and the absorbtion of the untreated (0 μm) cells (=100%). The IC50 values were determined by means of a 4 parameter fit.
# T1 sequence (O43683 704-1085): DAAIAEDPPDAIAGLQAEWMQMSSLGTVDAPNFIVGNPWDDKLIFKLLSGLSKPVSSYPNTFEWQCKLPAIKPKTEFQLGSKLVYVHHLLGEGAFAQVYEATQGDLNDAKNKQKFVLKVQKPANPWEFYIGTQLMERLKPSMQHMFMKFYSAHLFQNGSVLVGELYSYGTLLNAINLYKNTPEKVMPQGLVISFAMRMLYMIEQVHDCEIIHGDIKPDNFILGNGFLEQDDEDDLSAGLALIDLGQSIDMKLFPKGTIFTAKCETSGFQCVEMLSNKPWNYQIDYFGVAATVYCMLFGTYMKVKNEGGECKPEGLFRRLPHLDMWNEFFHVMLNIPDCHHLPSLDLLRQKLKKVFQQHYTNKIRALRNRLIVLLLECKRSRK
SMILES,IC50 [1] [nM],IC50 [2] [nM]
"CCOc1cc(F)c(Cn2nc(-c3ncc(OCCCS(C)(=N)=O)c(Nc4ccncc4)n3)c(C)c2C2CC2)c(F)c1 (single isomer, unassigned; (+)) [Example 2-2-3, (+)-2-[5-cyclopropyl-1-(4-ethoxy-2,6-difluorobenzyl)-4-methyl-1H-pyrazol-3-yl]-5-[3-(S-methylsulfonimidoyl)propoxy]-N-(pyridin-4-yl)pyrimidin-4-amine]",5.7,
"CCOc1cc(F)c(Cn2nc(-c3ncc(OCCCS(C)(=N)=O)c(Nc4ccncc4)n3)c(C)c2C2CC2)c(F)c1 (racemic) [Example 2-2-1, 2-[5-cyclopropyl-1-(4-ethoxy-2,6-difluorobenzyl)-4-methyl-1H-pyrazol-3-yl]-5-[3-(S-methylsulfonimidoyl)propoxy]-N-(pyridin-4-yl)pyrimidin-4-amine]",8.4,8200
"CCOc1cc(F)c(Cn2nc(-c3ncc(OCCCS(C)(=N)=O)c(Nc4ccncc4)n3)c(C)c2C2CC2)c(F)c1 (single isomer, unassigned; (-)) [Example 2-2-2, (−)-2-[5-cyclopropyl-1-(4-ethoxy-2,6-difluorobenzyl)-4-methyl-1H-pyrazol-3-yl]-5-[3-(S-methylsulfonimidoyl)propoxy]-N-(pyridin-4-yl)pyrimidin-4-amine]",9.5,
"CCOc1cc(F)c(Cn2nc(-c3ncc(OCCCS(C)(=O)=NC(=O)C(F)(F)F)c(Nc4ccncc4)n3)c(C)c2C2CC2)c(F)c1 (centres unmarked) [Example 2-1-1, N-{[3-({2-[5-cyclopropyl-1-(4-ethoxy-2,6-difluorobenzyl)-4-methyl-1H-pyrazol-3-yl]-4-(pyridin-4-ylamino)pyrimidin-5-yl}oxy)propyl](methyl)oxido-λ^6-sulfanylidene}-2,2,2-trifluoroacetamide]",11,
